How the values were obtained:
SSTR4 [1] = target: T1, SSTR4 (Homo sapiens (Human), UniProt P31391); assay: SSTR4 I-125 somatostatin competition binding assay (membranes from CHO-K1 cells overexpressing SSTR4); conditions: competition with I-125 labeled somatostatin; for IC50: read-out: SSTR4 Binding pIC50 (converted)
SSTR4 [2] = target: T1, SSTR4; assay: Inhibition of forskolin stimulated cAMP in CHO-K1 cells overexpressing SSTR4; format: cell-based; conditions: for EC50: read-out: SSTR4 Activity pEC50 (converted)
Summary of the method: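 Read-out is a HTRF LANCE Ultra cAMP competition using Eu-labelled streptavidin and biotin-cAMP, incubated 60 min at room temperature. It followed a 30 min room-temperature exposure of Kreb's Ringer-washed cells to compound plus forskolin. Potency is expressed as pEC50.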

SSTR1 = SSTR1 (Homo sapiens (Human), UniProt P30872); assay: SSTR1 I-125 somatostatin competition binding assay for selectivity versus SSTR4 (membranes from CHO-K1 cells overexpressing SSTR1);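 note: Filter-based radioligand binding, bound label counted by scintillation after 60 min incubation at room temperature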
SSTR1, sequence (P30872 whole entry): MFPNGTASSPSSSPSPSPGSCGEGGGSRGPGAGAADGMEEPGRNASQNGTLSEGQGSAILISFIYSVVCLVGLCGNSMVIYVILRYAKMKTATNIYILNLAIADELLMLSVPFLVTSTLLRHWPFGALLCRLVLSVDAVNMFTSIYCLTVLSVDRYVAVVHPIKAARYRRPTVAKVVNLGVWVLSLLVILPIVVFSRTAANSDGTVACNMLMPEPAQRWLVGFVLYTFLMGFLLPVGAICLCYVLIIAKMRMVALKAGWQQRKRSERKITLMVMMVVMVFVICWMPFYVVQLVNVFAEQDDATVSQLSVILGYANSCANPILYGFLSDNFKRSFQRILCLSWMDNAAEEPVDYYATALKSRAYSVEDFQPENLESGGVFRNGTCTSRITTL
Protocol: Membranes from CHO-K1 cells overexpressing SSTR1 are purchased from Perkin Elmer (catalog number ES-520-M400UA). […] Then 10 μg of SSTR1 membranes in 50 μL assay buffer are added per well. The plate is incubated for 60 minutes at room temperature. […] The contents of the assay plate are transferred to filters with a TomTech harvester and washed 5 times with 20 mM HEPES, 100 mM NaCl. […] The scintillator sheets are melted to the filters using a heat block. The filters are then read in a MicroBeta scintillation counter. Binding Ki curves are generated using Activity Base for Screening Data Management and the results are reported as pIC50.

T1 sequence (P31391 whole entry): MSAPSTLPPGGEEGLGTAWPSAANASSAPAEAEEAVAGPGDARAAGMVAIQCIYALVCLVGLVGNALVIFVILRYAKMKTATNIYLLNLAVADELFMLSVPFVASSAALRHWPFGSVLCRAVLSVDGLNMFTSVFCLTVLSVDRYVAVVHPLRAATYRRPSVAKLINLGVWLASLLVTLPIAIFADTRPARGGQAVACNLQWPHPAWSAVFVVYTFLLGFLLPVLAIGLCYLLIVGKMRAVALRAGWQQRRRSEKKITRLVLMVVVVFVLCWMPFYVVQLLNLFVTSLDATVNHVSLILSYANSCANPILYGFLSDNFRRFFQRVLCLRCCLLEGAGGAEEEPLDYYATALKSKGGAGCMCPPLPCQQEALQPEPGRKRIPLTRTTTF

Structure (SMILES)	IC50 (SSTR4 [1])	EC50 (SSTR4 [2])	IC50 (SSTR1)	SSTR4 Binding pIC50 (SSTR4 [1])	SSTR1 Binding pIC50 (SSTR1; competition with I-125 labeled somatostatin, CHO-K1 SSTR1 membranes)	SSTR4 Activity pEC50 (SSTR4 [2])
CC(C)[C@@H]1CN(C)C[C@H]1NC(=O)C(C)(C)COc1ncccc1C(F)(F)F (racemic) [Example 15, trans-N-(4-isopropyl-1-methylpyrrolidin-3-yl)-2,2-dimethyl-3-((3-(trifluoromethyl)pyridin-2-yl)oxy)propanamide]	0.158 µM	0.02 µM	3.16 µM	–	–	–
CN1C[C@@H](NC(=O)C(C)(C)COc2ncccc2C2CC2)[C@H](c2ccc(C(F)(F)F)nc2)C1 (racemic) [Example 58, trans-3-((3-cyclopropylpyridin-2-yl)oxy)-2,2-dimethyl-N-(1-methyl-4-(6-(trifluoromethyl)pyridin-3-yl)pyrrolidin-3-yl)propanamide]	0.2 µM	0.02 µM	0.126 µM	–	–	–
Cc1ccc([C@@H]2CN(C)C[C@H]2NC(=O)C(C)(C)COc2ncccc2C(F)(F)F)cn1 (racemic) [Example 62, trans-2,2-dimethyl-N-(1-methyl-4-(6-methylpyridin-3-yl)pyrrolidin-3-yl)-3-((3-(trifluoromethyl)pyridin-2-yl)oxy)propanamide]	0.2 µM	0.0158 µM	0.251 µM	–	–	–
CN1CC[C@@H](NC(=O)C(C)(C)COc2ncccc2C(F)(F)F)[C@H](c2cnn(C(F)F)c2)C1 (racemic) [Example 125, trans-N-(3-(1-(difluoromethyl)-1H-pyrazol-4-yl)-1-methylpiperidin-4-yl)-2,2-dimethyl-3-((3-(trifluoromethyl)pyridin-2-yl)oxy)propanamide]	0.0501 µM	0.00158 µM	0.794 µM	–	–	–
CC[C@@H]1CN(C)CC[C@H]1NC(=O)C(C)(C)COc1ncccc1C (racemic) [Example 127, trans-N-(3-ethyl-1-methylpiperidin-4-yl)-2,2-dimethyl-3-((3-methylpyridin-2-yl)oxy)propanamide]	0.0794 µM	0.0126 µM	7.94 µM	–	–	–
CC[C@@H]1CN(C)CC[C@H]1NC(=O)C(C)(C)COc1ncc(C)cc1C (racemic) [Example 128, trans-3-((3,5-dimethylpyridin-2-yl)oxy)-N-(3-ethyl-1-methylpiperidin-4-yl)-2,2-dimethylpropanamide]	0.0631 µM	0.0158 µM	3.16 µM	–	–	–
CN(C(=O)C(C)(C)COc1ncccc1C(F)(F)F)[C@@H]1CCNC[C@H]1c1ccccc1 (racemic) [Example 162, trans-N,2,2-trimethyl-N-(3-phenylpiperidin-4-yl)-3-((3-(trifluoromethyl)pyridin-2-yl)oxy)propanamide]	1.58 µM	0.126 µM	50.1 µM	–	–	–
C[C@@H]1CN(C)C[C@H]1NC(=O)C(C)(C)COc1ncccc1C(F)(F)F (racemic) [Example 165, N-(trans-1,4-dimethylpyrrolidin-3-yl)-2,2-dimethyl-3-((3-(trifluoromethyl)pyridin-2-yl)oxy)propanamide]	0.158 µM	0.0316 µM	5.01 µM	–	–	–
Cc1ccccc1[C@@H]1CNCC[C@H]1OC(=O)C(C)(C)COc1ncccc1C(F)(F)F (racemic) [Example 168, trans-3-(o-tolyl)piperidin-4-yl 2,2-dimethyl-3-((3-(trifluoromethyl)pyridin-2-yl)oxy)propanoate]	0.158 µM	0.0251 µM	15.8 µM	–	–	–
CN1CC[C@H](NC(=O)C(C)(C)COc2ncccc2OC(F)(F)F)[C@H](c2ccccc2)C1 (relative stereo) [Example 166, 2,2-dimethyl-N-(cis-1-methyl-3-phenylpiperidin-4-yl)-3-((3-(trifluoromethoxy)pyridin-2-yl)oxy)propanamide]	–	–	–	7.4	6.2	–
Cc1cnc(OCC(C)(C)C(=O)N[C@@H]2CCN(C)C[C@H]2C)c(C)c1 (single isomer, unassigned) [Example 31, trans-N-(1,3-dimethylpiperidin-4-yl)-3-((3,5-dimethylpyridin-2-yl)oxy)-2,2-dimethylpropanamide]	0.251 µM	0.0251 µM	–	–	–	–
C[C@@H]1CN(C)CC[C@H]1NC(=O)C(C)(C)COc1ncccc1OC(F)(F)F (single isomer, unassigned) [Example 108]	–	–	–	6.1	–	6.8
CC[C@@H]1CN(C)CC[C@H]1NC(=O)C(C)(C)COc1ncccc1C(F)(F)F (single isomer, unassigned) [Example 144]	–	–	–	8.0	–	8.7
Cc1cccnc1OCC(C)(C)C(=O)NC1CCN(C)CC1 [Example 1, 2,2-dimethyl-N-(1-methylpiperidin-4-yl)-3-((3-methylpyridin-2-yl)oxy)propanamide]	–	–	–	6.4	–	7.3
COc1cccnc1OCC(C)(C)C(=O)NC1CCN(C)CC1 [Example 49, 3-((3-methoxypyridin-2-yl)oxy)-2,2-dimethyl-N-(1-methylpiperidin-4-yl)propanamide]	–	–	–	6.0	–	6.7
CCOc1ccccc1OCC(C)(C)C(=O)NC1CCN(C)CC1 [Example 78, 3-(2-ethoxyphenoxy)-2,2-dimethyl-N-(1-methylpiperidin-4-yl)propanamide]	–	–	–	6.7	–	7.4

Structure (SMILES)	IC50 (SSTR4 [1])	EC50 (SSTR4 [2])	IC50 (SSTR1)	SSTR4 Binding pIC50 (SSTR4 [1])	SSTR1 Binding pIC50 (SSTR1; competition with I-125 labeled somatostatin, CHO-K1 SSTR1 membranes)	SSTR4 Activity pEC50 (SSTR4 [2])
Cc1cnc(OCC(C)(C)C(=O)NC2CCN(C)CC2)c(C)c1 [Example 84, 3-((3,5-dimethylpyridin-2-yl)oxy)-2,2-dimethyl-N-(1-methylpiperidin-4-yl)propanamide]	–	–	–	6.5	–	7.4
C[C@H]1CN(C)CC[C@@H]1NC(=O)C(C)(C)COc1ncccc1C(F)(F)F [Example 105, N-((3S,4S)-1,3-dimethylpiperidin-4-yl)-2,2-dimethyl-3-((3-(trifluoromethyl)pyridin-2-yl)oxy)propanamide]	–	–	–	7.2	–	8.1
C[C@H]1CN(C)CC[C@@H]1NC(=O)C(C)(C)COc1ncccc1OC(F)(F)F [Example 107, N-((3S,4S)-1,3-dimethylpiperidin-4-yl)-2,2-dimethyl-3-((3-(trifluoromethoxy)pyridin-2-yl)oxy)propanamide]	–	–	–	7.7	–	8.7
Cc1cccnc1OCC(C)(C)C(=O)N[C@H]1CCN(C)C[C@@H]1F [Example 121, N-((3S,4S)-3-fluoro-1-methylpiperidin-4-yl)-2,2-dimethyl-3-((3-methylpyridin-2-yl)oxy)propanamide]	–	–	–	6.6	–	6.9
Cc1cnc(OCC(C)(C)C(=O)N[C@H]2CCN(C)C[C@@H]2C)c(C)c1 [Example 141, N-((3S,4S)-1,3-dimethylpiperidin-4-yl)-3-((3,5-dimethylpyridin-2-yl)oxy)-2,2-dimethylpropanamide]	–	–	–	6.8	–	7.4
CC(C)(COc1ncccc1C(F)(F)F)C(=O)N[C@H]1CCNC[C@@H]1F [Example 158, N-((3S,4S)-3-fluoropiperidin-4-yl)-2,2-dimethyl-3-((3-(trifluoromethyl)pyridin-2-yl)oxy)propanamide]	–	–	–	8.1	–	8.2
C[C@@H]1C[C@H](NC(=O)C(C)(C)COc2ncccc2C(F)(F)F)CCN1C [Example 176]	–	–	–	7.1	–	7.7
C[C@H]1CNCC[C@@H]1NC(=O)C(C)(C)COc1ccccc1F [Example 196, 3-(2-fluorophenoxy)-2,2-dimethyl-N-((3S,4S)-3-methylpiperidin-4-yl)propanamide]	–	–	–	7.5	–	8.5
O=C(N[C@H]1CCNC[C@@H]1F)C(F)(F)COc1ncccc1C(F)(F)F [Example 197, 2,2-difluoro-N-((3S,4S)-3-fluoropiperidin-4-yl)-3-((3-(trifluoromethyl)pyridin-2-yl)oxy)propanamide]	–	–	–	7.0	–	7.7
Cc1cccnc1OCC(F)(F)C(=O)N[C@H]1CCNC[C@@H]1F [Example 201, 2,2-difluoro-N-((3S,4S)-3-fluoropiperidin-4-yl)-3-((3-methylpyridin-2-yl)oxy)propanamide]	–	–	–	6.7	–	7.5
C[C@@H]1C[C@H](NC(=O)C(F)(F)COc2ncccc2OC(F)(F)F)CCN1C [Example 206, N-((2R,4R)-1,2-dimethylpiperidin-4-yl)-2,2-difluoro-3-((3-(trifluoromethoxy)pyridin-2-yl)oxy)propanamide]	–	–	–	6.7	–	7.7
O=C(N[C@H]1CCNC[C@@H]1F)C(F)(F)COc1ncccc1OC(F)(F)F [Example 207, 2,2-difluoro-N-((3S,4S)-3-fluoropiperidin-4-yl)-3-((3-(trifluoromethoxy)pyridin-2-yl)oxy)propanamide]	–	–	–	7.6	–	8.1
Cc1cnc(OCC(C)(C)C(=O)N[C@@H]2CCNC[C@H]2F)c(C)c1 [Example 214, 3-((3,5-dimethylpyridin-2-yl)oxy)-N-((3R,4R)-3-fluoropiperidin-4-yl)-2,2-dimethylpropanamide]	–	–	–	6.8	–	8.2
CN1CCC(NC(=O)C(F)(F)COc2ccccc2Cl)CC1 [Example 215, 3-(2-chlorophenoxy)-2,2-difluoro-N-(1-methylpiperidin-4-yl)propanamide]	–	–	–	6.0	–	6.7
Cc1cnc(OCC(C)(C)C(=O)N[C@@H]2CCN(C)[C@H](C)C2)c(C)c1 [Example 218, N-((2R,4R)-1,2-dimethylpiperidin-4-yl)-3-((3,5-dimethylpyridin-2-yl)oxy)-2,2-dimethylpropanamide]	–	–	–	6.2	–	7.5

— patent US11045457B2, “Piperidinyl-3-(aryloxy)propanamides and propanoates” (priority 2018, dated 2021)
